# Results published in paper PMC5218480 (PLoS ONE, 2017).
# Test system: MV-4-11 cells
# Experiment: Gene expression microarray analysis (Affymetrix PrimeView) and GSEA
# Type: cell-based, human
# Set-up: RFU PODN (11730768_x_at) / Fold change /veh PODN (11730768_x_at) / RFU LINC00158 (11744669_a_at) / Fold change /veh LINC00158 (11744669_a_at) / RFU DUSP10 (11751237_a_at) / Fold change /veh DUSP10 (11751237_a_at) / RFU ID3 (11757404_x_at) / Fold change /veh ID3 (11757404_x_at) / RFU PLEKHG5 (11737974_s_at) / Fold change /veh PLEKHG5 (11737974_s_at) / RFU LRRC4B (11730491_at) / Fold change /veh LRRC4B (11730491_at) / RFU GIMAP4 (11747438_a_at) / Fold change /veh GIMAP4 (11747438_a_at) / RFU KRT8 (11758183_x_at) / Fold change /veh KRT8 (11758183_x_at) / RFU CNN1 (11734310_a_at) / Fold change /veh CNN1 (11734310_a_at) / RFU VPS37D (11726825_at) / Fold change /veh VPS37D (11726825_at) / RFU C10orf10 (11716522_x_at) / Fold change /veh C10orf10 (11716522_x_at) / RFU KIR2DL2 /// KIR2DL4 /// KIR2DL5A /// KIR2DL5B /// KIR2DS1 /// KIR2DS2 /// KIR2DS3 /// KIR2DS4 /// KIR3DL3 /// KIR3DL3 /// KIR3DS1 (11738374_at) / Fold change /veh KIR2DL2 /// KIR2DL4 /// KIR2DL5A /// KIR2DL5B /// KIR2DS1 /// KIR2DS2 /// KIR2DS3 /// KIR2DS4 /// KIR3DL3 /// KIR3DL3 /// KIR3DS1 (11738374_at) / RFU C1QL1 (11718748_at) / Fold change /veh C1QL1 (11718748_at) / RFU TMPRSS4 (11747572_a_at) / Fold change /veh TMPRSS4 (11747572_a_at) / RFU HAMP (11756126_x_at) / Fold change /veh HAMP (11756126_x_at) / RFU RNFT2 (11725882_a_at) / Fold change /veh RNFT2 (11725882_a_at) / RFU NR4A2 (11747474_a_at) / Fold change /veh NR4A2 (11747474_a_at) / RFU ABCC12 (11746883_a_at) / Fold change /veh ABCC12 (11746883_a_at) / RFU TMEM136 (11760407_x_at) / Fold change /veh TMEM136 (11760407_x_at) / RFU CLDN22 /// WWC2 (11732394_at) / Fold change /veh CLDN22 /// WWC2 (11732394_at) / RFU HLA-DPB1 (11760878_x_at) / Fold change /veh HLA-DPB1 (11760878_x_at) / RFU SPINT1 (11716480_a_at) / Fold change /veh SPINT1 (11716480_a_at) / RFU GAP43 (11754022_s_at) / Fold change /veh GAP43 (11754022_s_at) / RFU A4GNT (11735810_at) / Fold change /veh A4GNT (11735810_at) / RFU PRB3 (11715151_x_at) / Fold change /veh PRB3 (11715151_x_at) / RFU TUBB4B (11761932_at) / Fold change /veh TUBB4B (11761932_at) / RFU CAPN14 (11732068_a_at) / Fold change /veh CAPN14 (11732068_a_at) / RFU TMCC2 (11721928_a_at) / Fold change /veh TMCC2 (11721928_a_at) / RFU IRGQ (11745062_a_at) / Fold change /veh IRGQ (11745062_a_at) / RFU FAM174B (11720279_a_at) / Fold change /veh FAM174B (11720279_a_at) / RFU TMPRSS4 (11748680_a_at) / Fold change /veh TMPRSS4 (11748680_a_at) / RFU FAM212B (11763350_a_at) / Fold change /veh FAM212B (11763350_a_at) / RFU PLEKHG5 (11743358_a_at) / Fold change /veh PLEKHG5 (11743358_a_at) / RFU ZSCAN30 (11745921_a_at) / Fold change /veh ZSCAN30 (11745921_a_at) / RFU CMKLR1 (11741424_a_at) / Fold change /veh CMKLR1 (11741424_a_at) / RFU LOC101060620 /// MAPK8IP1 (11723275_at) / Fold change /veh LOC101060620 /// MAPK8IP1 (11723275_at) / RFU SPTSSB (11747773_x_at) / Fold change /veh SPTSSB (11747773_x_at) / RFU PRSS12 (11739890_at) / Fold change /veh PRSS12 (11739890_at) / RFU BIN1 (11741810_x_at) / Fold change /veh BIN1 (11741810_x_at) / RFU WNT11 (11732464_a_at) / Fold change /veh WNT11 (11732464_a_at) / RFU C10orf10 (11716521_a_at) / Fold change /veh C10orf10 (11716521_a_at) / RFU C5orf56 (11738089_at) / Fold change /veh C5orf56 (11738089_at) / RFU CYB561 (11721691_x_at) / Fold change /veh CYB561 (11721691_x_at) / RFU ANKRD19P (11752326_a_at) / Fold change /veh ANKRD19P (11752326_a_at) / RFU OR2T12 /// OR2T33 /// OR2T8 (11738714_s_at) / Fold change /veh OR2T12 /// OR2T33 /// OR2T8 (11738714_s_at) / RFU VCAN (11748164_a_at) / Fold change /veh VCAN (11748164_a_at) / RFU JSRP1 (11732532_at) / Fold change /veh JSRP1 (11732532_at) / RFU KRTAP10-11 (11738290_x_at) / Fold change /veh KRTAP10-11 (11738290_x_at) / RFU MYO3A (11730013_a_at) / Fold change /veh MYO3A (11730013_a_at) / RFU EBF3 (11725865_a_at) / Fold change /veh EBF3 (11725865_a_at) / RFU CAMK2N1 (11719241_x_at) / Fold change /veh CAMK2N1 (11719241_x_at) / RFU C5orf56 (11738088_a_at) / Fold change /veh C5orf56 (11738088_a_at) / RFU OLFML3 (11715873_a_at) / Fold change /veh OLFML3 (11715873_a_at) / RFU LOC100653217 /// NTM (11731650_a_at) / Fold change /veh LOC100653217 /// NTM (11731650_a_at) / RFU MAPK11 (11762145_a_at) / Fold change /veh MAPK11 (11762145_a_at) / RFU FIZ1 (11724087_x_at) / Fold change /veh FIZ1 (11724087_x_at) / RFU OASL (11726364_x_at) / Fold change /veh OASL (11726364_x_at) / RFU SOX15 (11748057_x_at) / Fold change /veh SOX15 (11748057_x_at) / RFU CD79A (11719716_a_at) / Fold change /veh CD79A (11719716_a_at) / RFU HIST1H1D (11736915_at) / Fold change /veh HIST1H1D (11736915_at) / RFU CASKIN2 (11723855_a_at) / Fold change /veh CASKIN2 (11723855_a_at) / RFU LOC730098 (11760151_x_at) / Fold change /veh LOC730098 (11760151_x_at) / RFU OR4N2 (11742367_at) / Fold change /veh OR4N2 (11742367_at) / RFU PRRT2 (11749266_a_at) / Fold change /veh PRRT2 (11749266_a_at) / RFU SNX32 (11753110_a_at) / Fold change /veh SNX32 (11753110_a_at) / RFU CDHR5 (11726645_a_at) / Fold change /veh CDHR5 (11726645_a_at) / RFU RCAN1 (11760418_a_at) / Fold change /veh RCAN1 (11760418_a_at) / RFU FAM167A (11723789_a_at) / Fold change /veh FAM167A (11723789_a_at) / RFU FAM26E (11764081_at) / Fold change /veh FAM26E (11764081_at) / RFU ISYNA1 (11749810_s_at) / Fold change /veh ISYNA1 (11749810_s_at) / RFU ACY1 (11761880_at) / Fold change /veh ACY1 (11761880_at) / RFU 11764098_at / Fold change /veh 11764098_at / RFU SAMD14 (11745864_x_at) / Fold change /veh SAMD14 (11745864_x_at) / RFU NPB (11741838_a_at) / Fold change /veh NPB (11741838_a_at) / RFU TMPRSS6 (11731388_a_at) / Fold change /veh TMPRSS6 (11731388_a_at) / RFU KRTAP10-2 (11738614_at) / Fold change /veh KRTAP10-2 (11738614_at) / RFU ARHGAP8 /// PRR5-ARHGAP8 (11727945_x_at) / Fold change /veh ARHGAP8 /// PRR5-ARHGAP8 (11727945_x_at) / RFU KRTAP5-7 /// NADSYN1 (11734609_at) / Fold change /veh KRTAP5-7 /// NADSYN1 (11734609_at) / RFU RASL12 (11751679_a_at) / Fold change /veh RASL12 (11751679_a_at) / RFU CDKN2B (11736163_a_at) / Fold change /veh CDKN2B (11736163_a_at) / RFU PRF1 (11729649_at) / Fold change /veh PRF1 (11729649_at) / RFU, ZNF638 /// ZNF638-IT1 / Fold change vs veh, ZNF638 /// ZNF638-IT1 / RFU, PANK3 / Fold change vs veh, PANK3 / RFU, SH3YL1 / Fold change vs veh, SH3YL1 / RFU, ZEB2 / Fold change vs veh, ZEB2 / RFU, NRIP1 / Fold change vs veh, NRIP1 / RFU, PTTG1IP / Fold change vs veh, PTTG1IP / RFU, CAPN2 / Fold change vs veh, CAPN2 / RFU, MED14 / Fold change vs veh, MED14 / RFU, SNORA58 / Fold change vs veh, SNORA58 / RFU, C1orf63 / Fold change vs veh, C1orf63 / RFU, LRRFIP1 / Fold change vs veh, LRRFIP1 / RFU, NDUFAF7 / Fold change vs veh, NDUFAF7 / RFU, SLC12A2 / Fold change vs veh, SLC12A2 / RFU, IBTK / Fold change vs veh, IBTK / RFU, ESF1 / Fold change vs veh, ESF1 / Fold change vs veh, TMEM50B / RFU, TAOK1 / Fold change vs veh, TAOK1 / RFU, ACBD3 / Fold change vs veh, ACBD3 / RFU, TMA16 / Fold change vs veh, TMA16 / RFU, RWDD3 / Fold change vs veh, RWDD3 / RFU, BCAT1 / Fold change vs veh, BCAT1 / RFU, EDEM3 / Fold change vs veh, EDEM3 / RFU, TMEM33 / Fold change vs veh, TMEM33 / RFU, WDR75 / Fold change vs veh, WDR75 / RFU, AHCTF1 / Fold change vs veh, AHCTF1 / RFU, TFRC / Fold change vs veh, TFRC / RFU, ZDHHC17 / Fold change vs veh, ZDHHC17 / RFU, NOM1 / Fold change vs veh, NOM1 / RFU, ARL8B / Fold change vs veh, ARL8B / RFU, ZBTB11 / Fold change vs veh, ZBTB11 / RFU, TAMM41 / Fold change vs veh, TAMM41 / RFU, KIAA1704 /// LOC100996395 / Fold change vs veh, KIAA1704 /// LOC100996395 / RFU, ING1 / Fold change vs veh, ING1 / RFU, TRMT61B / Fold change vs veh, TRMT61B / RFU, FUBP3 / Fold change vs veh, FUBP3 / RFU, TP53 / Fold change vs veh, TP53 / RFU, TNKS2 / Fold change vs veh, TNKS2 / RFU, ZFP14 / Fold change vs veh, ZFP14 / RFU, ACTR2 / Fold change vs veh, ACTR2 / RFU, PPP3R1 / Fold change vs veh, PPP3R1 / RFU, PIK3R1 / Fold change vs veh, PIK3R1 / RFU, HNRNPA1 / Fold change vs veh, HNRNPA1 / RFU, RNF170 / Fold change vs veh, RNF170 / RFU, ZNF28 / Fold change vs veh, ZNF28 / RFU, RNGTT / Fold change vs veh, RNGTT / RFU, OGT / Fold change vs veh, OGT / RFU, BRD1 / Fold change vs veh, BRD1 / RFU, MARS / Fold change vs veh, MARS / RFU, ZNF655 / Fold change vs veh, ZNF655 / RFU, FAHD1 / Fold change vs veh, FAHD1 / RFU, BDP1 / Fold change vs veh, BDP1 / RFU, LRRCC1 / Fold change vs veh, LRRCC1 / RFU, ARID1A / Fold change vs veh, ARID1A / RFU, ZNF146 / Fold change vs veh, ZNF146 / RFU, ZNF330 / Fold change vs veh, ZNF330 / RFU, GPN3 / Fold change vs veh, GPN3 / RFU, C9orf123 / Fold change vs veh, C9orf123 / RFU, N4BP2L2 / Fold change vs veh, N4BP2L2 / RFU, ARFIP1 / Fold change vs veh, ARFIP1 / RFU, FAM179B / Fold change vs veh, FAM179B / RFU, BCL10 / Fold change vs veh, BCL10 / RFU, UHRF1BP1L / Fold change vs veh, UHRF1BP1L / RFU, BET1 / Fold change vs veh, BET1 / RFU, CNOT2 / Fold change vs veh, CNOT2 / RFU, ZNF268 / Fold change vs veh, ZNF268 / Fold change vs veh, ZNF507 / RFU, DGCR2 / Fold change vs veh, DGCR2 / RFU, WDSUB1 / Fold change vs veh, WDSUB1 / Fold change vs veh, HSP90B1 /// MIR3652 / RFU, ADSS / Fold change vs veh, ADSS / RFU, GK / Fold change vs veh, GK / RFU, ZNF148 / Fold change vs veh, ZNF148 / RFU, TAF9 / Fold change vs veh, TAF9 / RFU, SLC1A5 / Fold change vs veh, SLC1A5 / RFU, SLMO2 / Fold change vs veh, SLMO2 / RFU, ABCC4 / Fold change vs veh, ABCC4 / RFU, LOC101060439 /// RAP1B / Fold change vs veh, LOC101060439 /// RAP1B / RFU, RFX7 / Fold change vs veh, RFX7 / RFU, GTPBP10 / Fold change vs veh, GTPBP10 / RFU, CNEP1R1 / Fold change vs veh, CNEP1R1 / RFU, BIVM-ERCC5 /// ERCC5 / Fold change vs veh, BIVM-ERCC5 /// ERCC5 / RFU, ILF3 / Fold change vs veh, ILF3 / RFU 11762660_at / Fold change /veh 11762660_at / RFU VCAN (11757783_s_at) / Fold change /veh VCAN (11757783_s_at) / RFU DDX43 (11728927_at) / Fold change /veh DDX43 (11728927_at) / RFU KRT8 (11758188_x_at) / Fold change /veh KRT8 (11758188_x_at) / RFU NKD1 (11759106_at) / Fold change /veh NKD1 (11759106_at) / RFU SRD5A1 (11742802_a_at) / Fold change /veh SRD5A1 (11742802_a_at) / RFU TPSAB1 /// TPSB2 (11721975_s_at) / Fold change /veh TPSAB1 /// TPSB2 (11721975_s_at) / RFU GSTM3 (11746129_a_at) / Fold change /veh GSTM3 (11746129_a_at) / RFU IL23R (11737362_x_at) / Fold change /veh IL23R (11737362_x_at) / RFU TMEM51 (11727254_a_at) / Fold change /veh TMEM51 (11727254_a_at) / RFU PIWIL2 (11732686_x_at) / Fold change /veh PIWIL2 (11732686_x_at) / RFU ORM1 (11744905_x_at) / Fold change /veh ORM1 (11744905_x_at) / RFU CCDC152 (11743942_at) / Fold change /veh CCDC152 (11743942_at) / RFU ECM1 (11717891_a_at) / Fold change /veh ECM1 (11717891_a_at) / RFU IL23R (11748794_a_at) / Fold change /veh IL23R (11748794_a_at) / RFU TNFAIP8L3 (11732012_x_at) / Fold change /veh TNFAIP8L3 (11732012_x_at) / RFU MBOAT4 (11741988_at) / Fold change /veh MBOAT4 (11741988_at) / RFU 11764193_at / Fold change /veh 11764193_at / RFU TMEM53 (11763286_at) / Fold change /veh TMEM53 (11763286_at) / RFU MAGEB2 (11727129_at) / Fold change /veh MAGEB2 (11727129_at) / RFU TMEM200A (11744735_a_at) / Fold change /veh TMEM200A (11744735_a_at) / RFU CCDC152 (11751479_a_at) / Fold change /veh CCDC152 (11751479_a_at) / RFU FAM211A (11726209_a_at) / Fold change /veh FAM211A (11726209_a_at) / RFU RGS16 (11746705_a_at) / Fold change /veh RGS16 (11746705_a_at) / RFU VCAN (11755009_s_at) / Fold change /veh VCAN (11755009_s_at) / RFU RHOB (11743442_s_at) / Fold change /veh RHOB (11743442_s_at) / RFU RGS16 (11720943_a_at) / Fold change /veh RGS16 (11720943_a_at) / RFU RGS16 (11720944_at) / Fold change /veh RGS16 (11720944_at) / RFU, VPS4B / Fold change vs veh, VPS4B / RFU, CREB1 / Fold change vs veh, CREB1 / RFU, DNAJC13 / Fold change vs veh, DNAJC13 / RFU, GNAQ / Fold change vs veh, GNAQ / RFU, CDK5R1 / Fold change vs veh, CDK5R1 / RFU, ZRANB3 / Fold change vs veh, ZRANB3 / RFU, CUL4A / Fold change vs veh, CUL4A / RFU, CCNY / Fold change vs veh, CCNY / RFU, UFL1 / Fold change vs veh, UFL1 / RFU, COG3 / Fold change vs veh, COG3 / RFU, DIAPH2 / Fold change vs veh, DIAPH2 / RFU, SKA2 / Fold change vs veh, SKA2 / RFU, AFF3 / Fold change vs veh, AFF3 / RFU, LMF1 / Fold change vs veh, LMF1 / RFU, IPO11 / Fold change vs veh, IPO11 / RFU, DFFB / Fold change vs veh, DFFB / RFU, FOXP1 / Fold change vs veh, FOXP1 / RFU, CARD8 / Fold change vs veh, CARD8 / RFU, STRN3 / Fold change vs veh, STRN3 / RFU, ADK / Fold change vs veh, ADK / RFU, RASSF2 / Fold change vs veh, RASSF2 / RFU, WIPF1 / Fold change vs veh, WIPF1 / RFU, LARP1B / Fold change vs veh, LARP1B / RFU, RASA1 / Fold change vs veh, RASA1 / RFU, RB1 / Fold change vs veh, RB1 / RFU, PPFIA1 / Fold change vs veh, PPFIA1 / RFU, MAT2A / Fold change vs veh, MAT2A / RFU, CCT5 / Fold change vs veh, CCT5 / RFU, WDR92 / Fold change vs veh, WDR92 / RFU, CUX1 / Fold change vs veh, CUX1 / RFU, TTC7A / Fold change vs veh, TTC7A / RFU, TMEM135 / Fold change vs veh, TMEM135 / RFU, DEPTOR / Fold change vs veh, DEPTOR / RFU, CPM / Fold change vs veh, CPM / RFU, DNAJB6 / Fold change vs veh, DNAJB6 / RFU, CACNA2D3 / Fold change vs veh, CACNA2D3 / RFU, DTX4 / Fold change vs veh, DTX4 / RFU, TFCP2 / Fold change vs veh, TFCP2 / RFU, GMCL1 /// GMCL1P1 / Fold change vs veh, GMCL1 /// GMCL1P1 / RFU, AEBP2 / Fold change vs veh, AEBP2 / RFU, SNHG1 /// SNORD22 /// SNORD25 /// SNORD26 /// SNORD27 /// SNORD28 /// SNORD29 /// SNORD31 / Fold change vs veh, SNHG1 /// SNORD22 /// SNORD25 /// SNORD26 /// SNORD27 /// SNORD28 /// SNORD29 /// SNORD31 / Fold change (Aza/veh), C12orf56 (ProbeSet 11735607_a_at) / Fold change (ACY-1035/veh), C12orf56 (ProbeSet 11735607_a_at) / Fold change (Aza/veh), FGFR1OP (ProbeSet 11751329_s_at) / Fold change (ACY-1035/veh), FGFR1OP (ProbeSet 11751329_s_at) / Fold change (Aza/veh), VPS36 (ProbeSet 11739960_a_at) / Fold change (ACY-1035/veh), VPS36 (ProbeSet 11739960_a_at) / RFU SYPL1 (11715823_x_at) / Fold change /veh SYPL1 (11715823_x_at) / RFU IGFBP7 (11715501_s_at) / Fold change /veh IGFBP7 (11715501_s_at) / RFU REEP3 (11722064_at) / Fold change /veh REEP3 (11722064_at) / RFU IGLL1 (11728026_x_at) / Fold change /veh IGLL1 (11728026_x_at): dose or concentration left out as unconfirmed
# Settings: MV-4-11 cells, 48 hours
compound,measurement,value
Nc1ncn([C@@H]2O[C@H](CO)[C@@H](O)[C@H]2O)c(=O)n1 [azacitidine],RFU KRT8 (11758183_x_at),20.69 RFU
